Test results from patent US5985603A, “P2x receptor DNA and protein sequence” (Glaxo Group Limited, priority 1994, dated 1999).

How the values were obtained:
Type in all cases: cell-based
[1] = target: T1, rat vas deferens P2X receptor (Rattus norvegicus, UniProt P47824); assay: ATP-evoked currents, rat vas deferens P2X receptor clone in oocytes; details: ATP (>1 μM), second application 10 mins after the first
T1 construct: cRNA in Xenopus oocytes; stably transfected CHO cells
T1 sequence (P47824 1-399): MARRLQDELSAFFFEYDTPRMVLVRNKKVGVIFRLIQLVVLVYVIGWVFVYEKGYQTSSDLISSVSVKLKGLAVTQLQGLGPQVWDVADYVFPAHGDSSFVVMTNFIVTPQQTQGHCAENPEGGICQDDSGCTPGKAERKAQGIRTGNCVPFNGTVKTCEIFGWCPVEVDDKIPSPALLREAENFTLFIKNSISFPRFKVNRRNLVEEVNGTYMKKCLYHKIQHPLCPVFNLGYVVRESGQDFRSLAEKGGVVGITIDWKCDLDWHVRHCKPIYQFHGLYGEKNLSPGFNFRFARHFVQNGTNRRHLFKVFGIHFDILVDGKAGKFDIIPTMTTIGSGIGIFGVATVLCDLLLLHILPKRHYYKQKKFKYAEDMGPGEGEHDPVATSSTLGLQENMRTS
Protocol: 50 nl (200 ng) of RNA was injected into defolliculated Xenopus oocytes. After incubation for 2-6 days at 18° C., the oocytes were assayed for ATP-evoked currents by a two-electrode voltage clamp ([…]™); one electrode is to hold the voltage constant (at -100 mV), and the other is to measure the currents. […] Microelectrodes (0.5-2 M.OMEGA.) were filled with 3M KCl.

[2] = target: T1, rat vas deferens P2X receptor; assay: electrophysiological recording in CHO cells stably transfected with rat vas deferens P2X receptor; details: up to 30 μM
Text: CHO cells were stably transfected by a method used for other ion channels (Claudio, Meth. Enzymol. 207 391-408 (1992)). Transfection was confirmed by a) electro-physiological recording and b) radioligand binding. […] [^3 H]αβmethyleneATP binding was more than 600 cpm per million transfected cells with less than 80 cpm nonspecific binding.

PC12 P2X receptor = target: T2, PC12 P2X receptor (Rattus norvegicus, UniProt P49653); assay: functional properties of cloned P2X receptors (electrical recordings): PC12
T2 construct: host or cells: HEK293 cells (oocytes are also named for the functional characterisation of clone 3)
T2 sequence (P49653 1-472): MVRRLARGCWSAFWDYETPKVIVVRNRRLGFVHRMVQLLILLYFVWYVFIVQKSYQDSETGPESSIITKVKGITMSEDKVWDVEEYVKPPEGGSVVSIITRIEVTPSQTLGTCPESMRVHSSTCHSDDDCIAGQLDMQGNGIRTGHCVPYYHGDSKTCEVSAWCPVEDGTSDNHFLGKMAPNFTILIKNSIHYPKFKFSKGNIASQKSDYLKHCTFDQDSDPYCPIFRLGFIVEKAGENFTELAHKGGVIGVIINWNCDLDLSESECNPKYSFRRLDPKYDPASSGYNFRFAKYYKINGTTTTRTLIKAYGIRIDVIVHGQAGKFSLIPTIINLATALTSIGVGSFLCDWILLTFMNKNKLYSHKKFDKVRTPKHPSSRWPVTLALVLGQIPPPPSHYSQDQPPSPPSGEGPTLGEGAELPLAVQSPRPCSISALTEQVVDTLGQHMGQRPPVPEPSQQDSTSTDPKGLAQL

[3] = target: T3, rat vas/human bladder P2X cDNA clone (Homo sapiens, UniProt P51575); assay: functional properties of cloned P2X receptors (electrical recordings): bladder
T3 construct: expressed in transfected cells; host or cells: HEK293 cells (oocytes are also named for the functional characterisation)
T3 sequence (P51575 1-399): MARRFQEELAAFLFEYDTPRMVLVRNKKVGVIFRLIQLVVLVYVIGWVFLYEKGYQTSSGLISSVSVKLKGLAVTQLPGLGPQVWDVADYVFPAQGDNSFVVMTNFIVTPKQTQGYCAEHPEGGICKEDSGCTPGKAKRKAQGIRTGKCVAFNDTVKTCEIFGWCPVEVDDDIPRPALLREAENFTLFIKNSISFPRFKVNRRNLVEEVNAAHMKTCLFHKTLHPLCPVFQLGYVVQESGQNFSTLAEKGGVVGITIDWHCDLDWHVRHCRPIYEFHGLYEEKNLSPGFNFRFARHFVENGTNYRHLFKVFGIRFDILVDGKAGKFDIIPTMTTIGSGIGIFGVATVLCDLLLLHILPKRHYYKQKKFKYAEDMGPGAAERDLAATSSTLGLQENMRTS
Protocol: DNA concentration used was 1 mg/2 ml medium placed into a 35 mm petri dish containing four 11 mm diameter coverslips on which HEK cells were placed at 10,000 cells per coverslip. […] Currents were recorded from HEK 293 cells using whole-cell recording methods and the AXOPATCH™ 200 amplifier (Axon Instruments); patch pipettes (5 M.OMEGA.) contained (mM) Cs or K aspartate 140, NaCl 5, EGTA 11, HEPES 5. […] All recordings performed at room temperature. Data acquisition and analysis were performed using pCLAMP™ and AXOGRAPH™ software (Axon Instruments). […] ATP was applied by U-tube typically for 1 s; data was sampled at 5 kHz in 2 s segments beginning 300 ms prior to onset of agonist (ATP) application and filtered at 1 kHz.

## Nc1ncnc2c1ncn2[C@@H]1O[C@H](COP(=O)([O-])OP(=O)([O-])OP(=O)([O-])[O-])[C@@H](O)[C@H]1O.[Mg+2].[Mg+2] [ATP, adenosine 5'-triphosphate magnesium salt]
[1]
  inward current evoked by second application, of the initial peak amplitude: ~ 50%
[2]
  rapidly desensitising inward currents, CHO cells responding: rapidly desensitising inward currents in 14 of 14 CHO cells
PC12 P2X receptor
  EC50: 8 µM
[3]
  EC50: 0.7 µM
